Experimental data published in patent US10131652B2, “Pyrimidinyloxy benzene derivatives as herbicides” (E. I. DU PONT DE NEMOURS AND COMPANY, priority 2014, dated 2018).
Like-named read-outs stand apart in the source and are kept apart here.

What was measured:
Assay in all cases: Test E pre-/postemergence plant response
Format in all cases: in vivo
kochia (Kochia scoparia) = conditions: Bassia scoparia, scale 0 to 100, read-out: Plant response rating, Kochia; for pest or weed control at 125 g/ha: 125 g ai/ha
From the text: (§1) Seeds of plant species selected from bluegrass (annual bluegrass, Poa annua), blackgrass (Alopecurus myosuroides), canarygrass (Phalaris minor), chickweed (common chickweed, Stellaria media), galium (catchweed bedstraw, Galium aparine), downy bromegrass (Bromus tectorum), field poppy (Papaver rhoeas), field violet (Viola arvensis), green foxtail (Setaria viridis), deadnettle (henbit deadnettle, Lamium amplexicaule), Italian ryegrass (Lolium multiflorum), kochia (Kochia scoparia), lambsquarters (Chenopodium album), oilseed rape (Brassica napus), pigweed (Amaranthus retroflexus), Russian thistle (Salsola iberica), chamomile (scentless chamomile, Matricaria inodora), speedwell (bird's-eye speedwell, Veronica persica), spring barley (Hordeum vulgare), spring wheat (Triticum aestivum), wild buckwheat (Polygonum convolvulus), wild mustard (Sinapis arvensis), wild oat (Avena fatua), wild radish (Raphanus raphanistrum), windgrass (Apera spica-venti), winter barley (Hordeum vulgare), and winter wheat (Triticum aestivum) were planted into a silt loam soil and treated preemergence with test chemicals formulated in a non-phytotoxic solvent mixture which included a surfactant. At the same time, these species were planted in pots containing Redi-Earth® planting medium (Scotts Company, 14111 Scottslawn Road, Marysville, Ohio 43041) comprising spaghnum peat moss, vermiculite, wetting agent and starter nutrients and treated with postemergence applications of the test chemicals formulated in the same manner. Plants ranged in height from 2 to 18 cm (1- to 4-leaf stage).
(§2) Treated plants and controls were maintained in a controlled growth environment for 7 to 21 days after which time all species were compared to controls and visually evaluated. Plant response ratings, summarized in Table E, are based on a scale of 0 to 100 where 0 is no effect and 100 is complete control. A dash (-) response means no test result.

[1] = tested on: oilseed rape (Brassica napus); conditions: scale 0 to 100, read-out: Plant response rating, Oilseed Rape; for plant injury at 16 g/ha: 16 g ai/ha; for plant injury at 31 g/ha: 31 g ai/ha; for plant injury at 62 g/ha: 62 g ai/ha; for plant injury at 125 g/ha: 125 g ai/ha
From the text: as §1, §2

[2] = tested on: wild buckwheat (Polygonum convolvulus); conditions: Fallopia convolvulus, scale 0 to 100, read-out: Plant response rating, Buckwheat, Wild; for pest or weed control at 16 g/ha: 16 g ai/ha; for pest or weed control at 31 g/ha: 31 g ai/ha; for pest or weed control at 62 g/ha: 62 g ai/ha; for pest or weed control at 125 g/ha: 125 g ai/ha
From the text: as §1, §2

[3] = tested on: wild radish (Raphanus raphanistrum); conditions: scale 0 to 100, read-out: Plant response rating, Radish, Wild; for pest or weed control at 16 g/ha: 16 g ai/ha; for pest or weed control at 31 g/ha: 31 g ai/ha; for pest or weed control at 62 g/ha: 62 g ai/ha; for pest or weed control at 125 g/ha: 125 g ai/ha
From the text: as §1, §2

[4] = tested on: windgrass (Apera spica-venti); conditions: scale 0 to 100, read-out: Plant response rating, Windgrass; for pest or weed control at 16 g/ha: 16 g ai/ha; for pest or weed control at 62 g/ha: 62 g ai/ha; for pest or weed control at 125 g/ha: 125 g ai/ha
From the text: as §1, §2

[5] = tested on: winter barley (Hordeum vulgare); conditions: scale 0 to 100, read-out: Plant response rating, Barley, Winter; for plant injury at 16 g/ha: 16 g ai/ha; for plant injury at 31 g/ha: 31 g ai/ha; for plant injury at 62 g/ha: 62 g ai/ha; for plant injury at 125 g/ha: 125 g ai/ha
From the text: as §1, §2

## Fc1cccc(Oc2ncc(Cl)cn2)c1-c1cc(C(F)F)on1 [Compound 55, 5-chloro-2-[2-[5-(difluoromethyl)-3-isoxazolyl]-3-fluorophenoxy]pyrimidine]
Kochia (Kochia scoparia); post-emergence, Postemergence
  pest or weed control at 125 g/ha: 85%
Kochia (Kochia scoparia); pre-emergence, 16 g ai/ha, Preemergence
  pest or weed control at 16 g/ha: 55%
Kochia (Kochia scoparia); pre-emergence, 31 g ai/ha, Preemergence
  pest or weed control at 31 g/ha: 100%
Kochia (Kochia scoparia); pre-emergence, 62 g ai/ha, Preemergence
  pest or weed control at 62 g/ha: 100%
Kochia (Kochia scoparia); pre-emergence, Preemergence
  pest or weed control at 125 g/ha: 100%
[1]; post-emergence, Postemergence
  plant injury at 16 g/ha: 75%
  plant injury at 31 g/ha: 75%
  plant injury at 62 g/ha: 90%
  plant injury at 125 g/ha: 95%
[1]; pre-emergence, Preemergence
  plant injury at 16 g/ha: 20%
  plant injury at 31 g/ha: 100%
  plant injury at 62 g/ha: 100%
  plant injury at 125 g/ha: 100%
[2]; post-emergence, Postemergence
  pest or weed control at 16 g/ha: 65%
  pest or weed control at 31 g/ha: 95%
  pest or weed control at 62 g/ha: 95%
  pest or weed control at 125 g/ha: 95%
[2]; pre-emergence, Preemergence
  pest or weed control at 16 g/ha: 65%
  pest or weed control at 31 g/ha: 100%
  pest or weed control at 62 g/ha: 100%
  pest or weed control at 125 g/ha: 100%
[3]; post-emergence, Postemergence
  pest or weed control at 16 g/ha: 75%
  pest or weed control at 31 g/ha: 70%
  pest or weed control at 62 g/ha: 80%
  pest or weed control at 125 g/ha: 80%
[3]; pre-emergence, Preemergence
  pest or weed control at 16 g/ha: 70%
  pest or weed control at 31 g/ha: 100%
  pest or weed control at 62 g/ha: 100%
  pest or weed control at 125 g/ha: 100%
[4]; post-emergence, Postemergence
  pest or weed control at 16 g/ha: 5%
  pest or weed control at 62 g/ha: 25%
  pest or weed control at 125 g/ha: 40%
[4]; post-emergence, 31 g ai/ha, Postemergence
  pest or weed control at 31 g/ha: 10%
[4]; pre-emergence, Preemergence
  pest or weed control at 16 g/ha: 5%
  pest or weed control at 62 g/ha: 100%
  pest or weed control at 125 g/ha: 100%
[5]; post-emergence, Postemergence
  plant injury at 16 g/ha: 0%
  plant injury at 31 g/ha: 0%
  plant injury at 62 g/ha: 5%
  plant injury at 125 g/ha: 10%
[5]; pre-emergence, Preemergence
  plant injury at 16 g/ha: 5%
  plant injury at 31 g/ha: 10%
  plant injury at 62 g/ha: 10%
  plant injury at 125 g/ha: 35%
